# Test results as given in patent US10058593B2, “Methods and compositions for oral administration of proteins” (Oramed Ltd., priority 2008, dated 2018).
# System: dogs
# Experiment: Previous experiment in dogs treated with the same formulations
# Format: in vivo, dog
# Protocol: 4 days prior to dosing, formulation were prepared containing: (1) 8 mg insulin, 150 mg EDTA, 125 mg SBTI in 1 ml fish oil in a soft-gel capsule (SwissCup), (2). 8 mg insulin, 150 mg EDTA, 150000 KIU Aprotinin in 1 ml fish oil in a soft-gel capsule (SwissCup), (3) 8 mg insulin, 150 mg EDTA, 150000 KIU Aprotinin, 125 mg SBTI in 1 ml fish oil in a soft-gel capsule (SwissCup). The formulations were stored in the refrigerator (4° C.) until dosing.
# Thus, the results regarding the reduction in blood glucose levels with insulin and a combination of protease inhibitors was unexpected.
# Thus, the results regarding the reduction in blood C-peptide levels with insulin and a combination of protease inhibitors was unexpected.
# The above described formulations are also active with 0.5 ml fish oil both in dogs and humans.
substance,measurement,value
Aprotinin,reaction of dogs to Aprotinin,do not react
